Patent US12110305B2, “Prodrugs of phosphonamide nucleotide analogues and their pharmaceutical use” (priority 2020, dated 2024)
≈ marks a conversion by molar mass, not a printed value. Read-outs that look alike come from different tables or passages of the source.

Legend:
[1] = tested on: PHHs; assay: TFV-DP formation in primary human hepatocytes (PHHs); type: in vitro ADME; conditions: 1 μM compound, 1 hour at 37° C., intracellular volume 3 pL/cell, average of at least two independent experiments
Experimental: Example 110: TFV-DP Formation in Primary Human Hepatocytes (PHHs)
Compounds were tested in a 24-well assay format for the level of TFV-DP formation in PHHs. Cells were seeded (4.0×10^5 cells/well) in collagen coated plates and incubated at 37° C. After 4-6 hours the liquid was removed, 500 μl of new media (2% FBS, 1.5% DMSO) was added, and the cells were incubated at 37° C. overnight. The media is then replaced (2% FBS, 1.0% DMSO), compounds (1 μM) were added and the cells were incubated at 37° C. in the presence of compounds for 1 hour. Media was then removed and cells were washed 2× with 500 μl of 0.9% saline. After a final wash and liquid removal, 500 μL of MeOH+200 nM Cl-ATP+200 nM [adenine-^13C5]-tenofovir diphosphate (tetra ammonium salt) was added and cells were incubated at −80° C. for 30 minutes. The cells were kept on water ice while the MeOH/standard supernatant is pipetted up and down several times and then transferred to a 96 deep-well plate. Supernatants were then evaporated, samples were reconstituted in 80 μl of 1 mM ammonium phosphate and then thoroughly vortexed. Blank samples were pooled for serial dilution to construct calibration standards for TFV, TFV-DP and TFV-TP in pmol/million cells. Samples are then transferred to a short-well 96 well plate, centrifuged and injected on an LC-MS/MS for quantification. […]

[2] = tested on: MT-4 cells; assay: Cytotoxicity assay in MT-4 cells; type: cell-based, human; conditions: uninfected MT-4 cells, 5 days; average of at least two independent experiments; read-out: MT4 CC50
Experimental: Compounds were tested in a high-throughput 384-well assay format for their ability to inhibit the replication of HIV-1 (IIIB) in MT-4 cells. Compounds were serially diluted (1:3) in DMSO on 384-well polypropylene plates and further diluted 200-fold into complete RPMI media (10% FBS, 1% P/S) using the Biotek Micro Flow and Labcyte ECHO acoustic dispenser. Each plate contained up to 8 test compounds, with negative (no drug) and positive (5 μM AZT) controls. MT-4 cells were pre-treated with 10 μL of either RPMI (mock-infected) or a fresh 1:250 dilution of HIV-1 IIIB concentrated virus stock. Infected and uninfected MT-4 cells were further diluted in complete RPMI media and added to each plate using a Micro Flow dispenser. After 5 days incubation in a humidified and temperature-controlled incubator (37° C.), Cell Titer Glo (Promega) was added to the assay plates and chemiluminescence read using an Envision plate-reader. EC50 values were defined as the compound concentration that causes a 50% decrease in luminescence signal and were calculated using a sigmoidal dose-response model to generate curve fits and are shown in Table 1.
Example 105: Cytotoxicity Assay in MT-4 Cells
Assays were performed as described in Example 104 except uninfected MT-4 cells were added to each well containing test compound. In addition, 10 μM puromycin was added to the last column of each assay plate to assess a base level of cytotoxicity.

[3] = tested on: HIV-1 (IIIB); assay: Antiviral (HIV) assay in MT-4 cells; type: cell-based; conditions: HIV-1 IIIB in MT-4 cells, 5 days incubation, Cell Titer Glo, average of at least two independent experiments
Outline: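 MT-4 cells, infected with HIV-1 IIIB (1:250 dilution of concentrated stock) or mock-infected, were exposed to 1:3 serially diluted compounds in RPMI with 10% FBS. After 5 days at 37° C., CellTiter-Glo luminescence was read. EC50 = concentration causing […], from sigmoidal dose-response fits.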

[4] = tested on: PBMCs; assay: TFV-DP formation in peripheral blood mononuclear cells (PBMCs); type: in vitro ADME, human; conditions: activated PBMCs, 1 μM compound, 50% serum, 2 hrs at 37° C.; intracellular volume 0.2 pL/cell; average of at least two independent experiments
Experimental: Example 109: TFV-DP Formation in Peripheral Blood Mononuclear Cells (PBMCs)
Compounds were tested in a 96-well assay format for the level of TFV-DP loading in PBMCs in the presence of human serum. PBMCs were activated with 100 units/mL recombinant human […] and 2 μg/mL phytohaemagglutinin (PHA) for 36 hrs. After activation, PBMCs (2 million) were incubated with compounds (1 μM) and cell culture media with 50% serum in a 96 well plate for 2 hrs at 37° C. Cells were transferred to a 96 well deep block plate and spun down. Liquid was removed, and cells were washed 2× with 1 mL of 0.9% saline with spin downs between washes. After a final wash and liquid removal, 500 μL of MeOH+200 nM Cl-ATP+200 nM [adenine-^13C5]-tenofovir diphosphate (tetra ammonium salt) was added and thoroughly mixed with the cells. The plate was then spun down and 450 μL of sample was transferred to a new 96 well plate. Supernatants were then evaporated, reconstituted in 80 μl of 1 mM ammonium phosphate and thoroughly vortexed. Blank samples were pooled for serial dilution to construct calibration standards for TFV, TFV-DP and TFV-TP in pmol/million cells. Samples were then transferred to a short-well 96 well plate, centrifuged and injected on an LC-MS/MS for quantification. Values were reported in μM units using an intracellular volume of 0.2 pL/cell.

[5] = physchem; type: physicochemical; conditions: phosphate buffered saline, 26 °C, aqueous buffer, kinetic from dmso stock, pH 7.4 PBS, 1.0% DMSO, 24-hour incubation at ambient temperature
Experimental: Example 108: Kinetic Solubility Analysis
Buffer Preparation: 0.1 N HCl: Hydrochloric acid, 0.1 N standardized solution (MP Biomedicals part number 199569). 1×PBS, pH 7.4: Phosphate Buffered Saline (PBS) solution 10× (Fisher Bioreagent part number BP399-500) 50 mL was added to approximately 450 mL HPLC grade H2O. The volume of the solution was then adjusted to 500 mL for a total dilution factor of 1:10 and a final PBS concentration of 1×.
The final DMSO concentration was 1.0% (v/v) and maximum theoretical compound concentration is 100 μM (for compound stock concentration of 10 mM). The filter plate was sealed. Following 24-hour incubation at ambient temperature (24.2-27.5° C.), the samples were vacuum filtered and the filtrates were collected in a 96 well polypropylene plate for analysis. The collection plate was sealed for analysis. Filtrates were injected into the Antek 8060 chemiluminescent nitrogen detector for quantification. The results are reported in μM.
The filtrates were quantified with respect to this calibration curve. Each calculated solubility value was corrected for background nitrogen present in the DMSO and in the medium used to prepare the sample. All reported values for compounds containing adjacent nitrogen atoms in a ring structure were increased by approximately 25%.

Row | EC50 ([3]; Human immunodeficiency virus 1, MT4, 120 h) | solubility kinetic at 24 h [5] | Structure (SMILES) | Average PHH TFV-DP [1] | CC50 [2] | EC50 ([3]; read-out: MT4 HIV EC50) | Average PBMC TFV-DP [4]
1 | – | – | CCCCCCOC(=O)C(C)(C)NP(=O)(CO[C@H](C)Cn1cnc2c(NC(=O)CCCSC(C)=O)ncnc21)NC(C)(C)C(=O)OCCCCCC [Example 97, Dihexyl 2,2′-(((((1-(6-(4-(acetylthio)butanamido)-9H-purin-9-yl)propan-2-yl)oxy)methyl)phosphoryl)bis(azanediyl))(R)-bis(2-methylpropanoate)] | 1.60 µM | 10700 nM | 13 nM | 1.4 µM
2 | – | – | C[C@H](Cn1cnc2c(N)ncnc21)OCP(=O)(NC(C)(C)C(=O)OCC1CCC(C)(C)CC1)NC(C)(C)C(=O)OCC1CCC(C)(C)CC1 [Example 13, Bis((4,4-dimethylcyclohexyl)methyl) 2,2′-(((((1-(6-amino-9H-purin-9-yl)propan-2-yl)oxy)methyl)phosphoryl)bis(azanediyl))(R)-bis(2-methylpropanoate)] | – | 5470 nM | 16 nM | 2.6 µM
3 | – | – | C[C@H](Cn1cnc2c(N)ncnc21)OCP(=O)(NC(C)(C)C(=O)OCCc1ccccc1)NC(C)(C)C(=O)OCCc1ccccc1 [Example 103, Diphenethyl 2,2′-(((((1-(6-amino-9H-purin-9-yl)propan-2-yl)oxy)methyl)phosphoryl)bis(azanediyl))(R)-bis(2-methylpropanoate)] | – | > 42500 nM | > 500 nM | 0.4 µM
4 | 8 nM | 38 µg/mL (≈ 60.7 µM) | CC(C)CCCOC(=O)C(C)(C)NP(=O)(CO[C@H](C)Cn1cnc2c(N)ncnc21)NC(C)(C)C(=O)OCCCC(C)C [Example 67, Bis(4-methylpentyl) 2,2′-(((((1-(6-amino-9H-purin-9-yl)propan-2-yl)oxy)methyl)phosphoryl)bis(azanediyl))(R)-bis(2-methylpropanoate)] | – | – | – | –
5 | – | – | CCCCCCOC(=O)C(C)(C)NP(=O)(CO[C@H](C)Cn1cnc2c(NC(=O)CC(C)(C)c3c(C)cc(C)cc3OC(C)=O)ncnc21)NC(C)(C)C(=O)OCCCCCC [Example 100, Dihexyl 2,2′-(((((1-(6-(3-(2-acetoxy-4,6-dimethylphenyl)-3-methylbutanamido)-9H-purin-9-yl)propan-2-yl)oxy)methyl)phosphoryl)bis(azanediyl))(R)-bis(2-methylpropanoate)] | 4.73 µM | – | 22 nM | 1.9 µM
